Structures can show the parent of a compound that is named as a salt. Where two headings read alike, the source gives them in different places.

The test system of data set [1] is AGE formation in human serum albumin (HSA)/glucose or fructose. In words: Inhibitory effect on AGE formation (HSA with glucose or fructose, fluorescence). Format: biochemical. The settings on record: 60 °C, 40 h, means ± SE (n = 3). The protocol: The antiglycation effects of compounds isolated from TBE and several other related compounds were evaluated based on their AGE inhibitory activities as described previously, with slight modifications. Briefly, the sample solution was added to a reaction mixture containing 83.3 mM phosphate buffer (pH 7.2), 2.0 M glucose, 2.0 M fructose, 8.0 mg/mL human serum albumin (HSA), and distilled water (6:1:1:1:1, v/v). As a control, the vehicle was supplemented instead of the sample solution. For each blank, glucose or fructose was replaced with distilled water, and the total volume was set to 1000 μL. After incubation of the sample mixture at 60 °C for 40 h, the solutions were diluted 8-fold with distilled water, dispensed into a black microplate in 200 µL portions, and their fluorescence intensities were measured at excitation and emission wavelengths of 370 and 465 nm, respectively, using a Power Scan HT (DS Pharma Biomedical Co. Ltd., Osaka, Japan). The inhibitory rate was calculated as; Inhibitory rate (%) = 100 − [(S − SB)/(C − CB)] × 100(2) where S is the relative intensity of the sample solution, C is the relative intensity of the control solution, and SB and CB are the intensities of the glucose or fructose-omitted blank solutions. The experimental data are represented as IC50 (μM) values.

Data set [2] in a line: AGE-derived crosslink-cleaving effect (PPD cleavage to benzoic acid, HPLC). The settings on record: for Crosslink-Cleaving Activities Relative Ratio: tested samples 100 μg/mL, relative to PTB = 100, means ± SE (n = 3); for AGE cross-link cleaving activity (in words): compared with positive control PTB. The protocol:
The AGE crosslink-cleaving activity of the same samples was evaluated according to the previously described method by Kato et al. with a slight modification. Briefly, the 1 mg/mL of tested samples prepared with H2O were mixed with 1.13 mM PPD solution in MeOH:50 mM phosphate buffer (pH 7.4) (1:1) and incubated at 37 °C for 4 h. After 4 h, the reaction was stopped with 200 μL of 2 M HCl, then the stopped reaction mixtures were centrifuged at 8200× g for 5 min. The amount of benzoic acid in the supernatant was measured by reversed-phase HPLC. The following conditions were applied: column, InertSustain C18 column (150 mm × 4.6 i.d mm., 5 μm); mobile phase, 50 mM phosphate buffer (pH 2.2):CH3CN (80:20) (solvent A) and 50 mM phosphate buffer (pH 2.2):CH3CN (50:50) (solvent B), the gradient program, 0–20 min (solvent B: 0–25%), 20–25 min (solvent B: 25–100%), 25–36 min (solvent B: 100–25%); column temperature, 40 °C; detection, UV at 230 nm; flow rate, 1.0 mL/min. These cleaving effects were calculated as equivalents to benzoic acid.

Data set [3] addresses α-glucosidase. In words: α-Glucosidase inhibitory activity (rat intestinal acetone powder, maltose substrate). Format: biochemical. The settings on record: for IC50: maltose, pH 7, 37 °C, means ± SE (n = 3), read-out: Inhibitory Effects on α-Glucosidase Activity IC50. The protocol:
The α-glucosidase inhibitory activity was tested according to the previously described method by Kirino et al. with a slight modification. Rat intestinal acetone powder was mixed with 0.1 M phosphate buffer (pH 7) and centrifuged at 18,500× g and 4 °C for 20 min. The resulting supernatant was collected and used as a glucosidase solution for enzymatic assay. Each sample solution (160 μL) was mixed with 250 mM maltose solution (20 μL) in 0.2 M phosphate buffer (pH 7) and then incubated at 37 °C for 3 min. After incubation, the enzymatic reaction was started by adding glucosidase solution from the rat intestine (20 μL) and the resulting reaction mixtures were further incubated at 37 °C for 15 min. After 15 min, the reaction mixtures were immediately heated at 100 °C for 5 min to stop the reaction followed by cooling on ice for 5 min. The amount of glucose in the reaction mixtures was determined using the F-Kit glucose (Roche diagnostics, Co., Tokyo, Japan) by measuring the absorbance at 340 nm. A control was carried out with 0.1 M phosphate buffer (pH 7) instead of sample solution. For the blank, the glucosidase solution was replaced with distilled water. The glucosidase inhibitory rates of tested samples were calculated as; Inhibitory rate (%) = 100 − [(Asample − Ablank)/(Acontrol − Ablank)] × 100(1) where Asample, Acontrol, and Ablank is the absorbance of the tested sample, control, and blank, respectively. The experimental data are represented as IC50 (μM) values.

Data set [4] addresses α-glucosidase. Further details: method as in earlier work. Particulars: cited from earlier work; for IC50: table lines marked with reference 8, means ± SE (n = 3), read-out: Inhibitory Effects on α-Glucosidase Activity IC50; for Inhibitory activity on α-glucosidase (in words): ellagitannin dimers isolated from T. japonica.
[5] abbreviates: HSA/fructose, read-out: Inhibitory Effects on AGE Formation IC50, Fructose.
Setting [6] is: HSA/glucose, read-out: Inhibitory Effects on AGE Formation IC50, Glucose.

On to `O=C(OC[C@H]1O[C@@H](OC(=O)c2cc(O)c(O)c(O)c2)[C@H](OC(=O)c2cc(O)c(O)c(O)c2)[C@@H](OC(=O)c2cc(O)c(O)c(O)c2)[C@@H]1OC(=O)c1cc(O)c(O)c(O)c1)c1cc(O)c(O)c(O)c1` [1,2,3,4,6-Penta-O-galloyl-β-D-glucose, reference compound], for which the IC50 (in general, the point on the concentration scale where inhibition reaches its midpoint) in data set [1] (setting [5]) is 0.2 µM; in data set [1] (setting [6]) it was 0.2 µM; on α-glucosidase [3] it was 59 ± 0.4 µM. Also, the “Crosslink-Cleaving Activities Relative Ratio” value in data set [2] came to 97.9 ± 2.1.
Take `N=C(N)NN` [Aminoguanidine, aminoguanidine hydrochloride, reference compound]: the values for the IC50 in data set [1] (setting [5]) and in data set [1] (setting [6]) were 801 ± 17.7 µM and 259 ± 6.8 µM, respectively.
Take `O=C(OC[C@H]1O[C@@H](O)[C@H](OC(=O)c2cc(O)c(O)c(O)c2)[C@@H](O)[C@@H]1O)c1cc(O)c(O)c(O)c1` [Compound 1, 2,6-di-O-galloyl-β-D-glucose]: the values for the IC50 in data set [1] (setting [5]) and in data set [1] (setting [6]) were 3.3 µM and 1.5 ± 0.1 µM, respectively. Further, the “Crosslink-Cleaving Activities Relative Ratio” value in data set [2] was determined as 77.4 ± 4.0.
Turning to `O=C(O[C@@H]1O[C@H](CO)[C@@H](O)[C@H](OC(=O)c2cc(O)c(O)c(O)c2)[C@H]1OC(=O)c1cc(O)c(O)c(O)c1)c1cc(O)c(O)c(O)c1` [Compound 2, 1,2,3-tri-O-galloyl-β-D-glucose], the values for the IC50 (in data set [1] (setting [5]); in data set [1] (setting [6]); at α-glucosidase [4]) were 0.4 µM, 0.4 µM and greater than 100 µM, respectively. Further, the “Crosslink-Cleaving Activities Relative Ratio” value in data set [2] amounted to 190.5 ± 2.5.
Turning to `O=C(OC[C@H]1O[C@@H](OC(=O)c2cc(O)c(O)c(O)c2)[C@H](OC(=O)c2cc(O)c(O)c(O)c2)[C@@H](O)[C@@H]1O)c1cc(O)c(O)c(O)c1` [Compound 3, 1,2,6-tri-O-galloyl-β-D-glucose], the IC50 in data set [1] (setting [5]) is 0.4 µM; in data set [1] (setting [6]) it was 0.3 µM; at α-glucosidase [4], greater than 100 µM. Also, the “Crosslink-Cleaving Activities Relative Ratio” value in data set [2] worked out at 146.6 ± 12.6.
`O=C(OC[C@H]1O[C@@H](O)[C@H](OC(=O)c2cc(O)c(O)c(O)c2)[C@@H](OC(=O)c2cc(O)c(O)c(O)c2)[C@@H]1O)c1cc(O)c(O)c(O)c1` [Compound 4, 2,3,6-tri-O-galloyl-β-D-glucose]: the IC50 in data set [1] (setting [5]) stood at 1 µM; in data set [1] (setting [6]) it was 0.3 µM.
Turning to `O=C(OC[C@H]1O[C@@H](OC(=O)c2cc(O)c(O)c(O)c2)[C@H](OC(=O)c2cc(O)c(O)c(O)c2)[C@@H](O)[C@@H]1OC(=O)c1cc(O)c(O)c(O)c1)c1cc(O)c(O)c(O)c1` [Compound 6, 1,2,4,6-tetra-O-galloyl-β-D-glucose], the IC50 in data set [1] (setting [5]) was 0.3 µM; in data set [1] (setting [6]), 0.3 µM; on α-glucosidase [3], greater than 100 µM. Besides, in data set [2], the “Crosslink-Cleaving Activities Relative Ratio” value is listed as 159.6 ± 12.7.
Take `O=C(O[C@@H]1O[C@@H]2COC(=O)c3cc(Oc4ccc(O)c(O)c4O)c(O)c(O)c3-c3c(cc(O)c(O)c3O)C(=O)O[C@H]2[C@H](OC(=O)c2cc(O)c(O)c(O)c2)[C@H]1OC(=O)c1cc(O)c(O)c(O)c1)c1cc(O)c(O)c(O)c1` [Compound 8, decarboxylated rugosin A]: the 50% inhibitory concentration (IC50) in data set [1] (setting [5]) came out at 0.3 µM; in data set [1] (setting [6]), 0.3 µM; on α-glucosidase [3], 20.7 ± 0.1 µM. For the same compound, the “Crosslink-Cleaving Activities Relative Ratio” value in data set [2] turned out to be 233.0 ± 5.8.
Take `O=C(O[C@@H]1O[C@@H]2COC(=O)c3cc(Oc4c(C(=O)O[C@H]5C(O)O[C@@H]6COC(=O)c7cc(O)c(O)c(O)c7-c7c(cc(O)c(O)c7O)C(=O)O[C@H]6[C@@H]5OC(=O)c5cc(O)c(O)c(O)c5)cc(O)c(O)c4O)c(O)c(O)c3-c3c(cc(O)c(O)c3O)C(=O)O[C@H]2[C@H](OC(=O)c2cc(O)c(O)c(O)c2)[C@H]1OC(=O)c1cc(O)c(O)c(O)c1)c1cc(O)c(O)c(O)c1` (some centres unmarked) [Compound 9, camptothin B]: the IC50 was 0.2 µM in data set [1] (setting [5]), 0.1 µM in data set [1] (setting [6]) and greater than 100 µM on α-glucosidase [3]. Further, in data set [2], the “Crosslink-Cleaving Activities Relative Ratio” value is listed as 180.6 ± 4.2.
In the case of `COc1cc(C2Oc3c(OC)cc(CCCO)cc3C2COC2OC(CO)C(O)C(O)C2O)ccc1O` [Compound 10, (7′S,8′R)-dihydrodehydrodiconiferyl alcohol-9′-O-β-D-glucoside], the IC50 in data set [1] (setting [5]) was greater than 1000 µM; in data set [1] (setting [6]), greater than 500 µM; on α-glucosidase [3], greater than 100 µM. The “Crosslink-Cleaving Activities Relative Ratio” value in data set [2] is 16.7 ± 1.4. Moreover, in the data set on α-glucosidase [3], the “α-Glucosidase inhibitory activity (in words)” value was “no inhibitory activity”.
With `O=c1oc2c(Oc3ccc(O)c(O)c3O)c(O)cc3c(=O)oc4c(O)c(O)cc1c4c23` [Compound 11, rubuphenol], in data set [1] (setting [5]), the IC50 came out at 4.7 ± 0.3 µM. The IC50 in data set [1] (setting [6]) was 2.4 µM. Besides, in data set [2], the “AGE cross-link cleaving activity (in words)” value is “remarkable activities” and the “Crosslink-Cleaving Activities Relative Ratio” value is given as 514.8 ± 11.2. In addition, in the data set with α-glucosidase [3], the “α-Glucosidase inhibitory activity (in words)” value is reported as “no inhibitory activity” and the half-inhibitory concentration (IC50) is greater than 100 µM.
In the case of `O=c1oc2c(O)c(Oc3ccc(O)c(O)c3O)cc3c(=O)oc4c(O)c(O)cc1c4c23` [Compound 12, eschweilenol A], the IC50 in data set [1] (setting [5]) stood at 2.9 ± 0.1 µM. The IC50 in data set [1] (setting [6]) was 2.4 µM. Also, in data set [2], the “AGE cross-link cleaving activity (in words)” value was “remarkable activities” and the “Crosslink-Cleaving Activities Relative Ratio” value is 484.5 ± 12.5. Besides, in the data set on α-glucosidase [3], the “α-Glucosidase inhibitory activity (in words)” value is listed as “no inhibitory activity” and the half-maximal inhibitory concentration (IC50) was greater than 100 µM.
With `COc1cc([C@H]2Oc3c(OC)cc(CCCO)cc3[C@@H]2CO)ccc1O` [Compound 13], the IC50 in data set [1] (setting [5]) was greater than 1000 µM; in data set [1] (setting [6]), greater than 500 µM; on α-glucosidase [3] it was greater than 100 µM. Besides, in data set [2], the “Crosslink-Cleaving Activities Relative Ratio” value worked out at 17.2 ± 1.1. Further, in the data set with α-glucosidase [3], the “α-Glucosidase inhibitory activity (in words)” value is listed as “no inhibitory activity”.
Taken in the same sequence, the figures for `O=c1oc2c(O)c(O)cc3c(=O)oc4c(O)c(O)cc1c4c23` [Ellagic acid, reference compound] were 2.5 ± 0.1 µM, 1.8 ± 0.1 µM, greater than 100 µM, 11.4 ± 0.1 and “little effect”.
For the compound `O=C(C[n+]1ccsc1)c1ccccc1.[Br-]` [N-Phenacylthiazolium bromide (PTB), N-phenacylthiazolium bromide, reference compound], the “Crosslink-Cleaving Activities Relative Ratio” value in data set [2] is given as 100.
As to `O=C(O[C@@H]1O[C@@H]2COC(=O)c3cc(Oc4c(C(=O)O[C@@H]5O[C@@H]6COC(=O)c7cc(O)c(O)c(O)c7-c7c(cc(O)c(O)c7O)C(=O)O[C@H]6[C@H](OC(=O)c6cc(O)c(O)c(O)c6)[C@H]5OC(=O)c5cc(O)c(O)c(O)c5)cc(O)c(O)c4O)c(O)c(O)c3-c3c(cc(O)c(O)c3O)C(=O)O[C@H]2[C@H](OC(=O)c2cc(O)c(O)c(O)c2)[C@H]1OC(=O)c1cc(O)c(O)c(O)c1)c1cc(O)c(O)c(O)c1` [rugosin D, reference compound], the “Inhibitory activity on α-glucosidase (in words)” value in the data set with α-glucosidase [4] was “comparable to that of acarbose”.
In the case of Cornusiin G [reference compound], in the data set on α-glucosidase [4], the “Inhibitory activity on α-glucosidase (in words)” value is listed as “comparable to that of acarbose” and the IC50 was 6.3 ± 0.1 µM.

Source of the values: article PMC8510478, “Characterization and Identification of Bioactive Polyphenols in the Trapa bispinosa Roxb. Pericarp Extract” (Molecules, 2021).
